According to US10376520B2, “Methods for the treatment of cardiovascular disorders” (Galapagos NV, priority 2015, dated 2019):

System: RA patients
Experiment: Total cholesterol determination, Study 2 (RA patients, monotherapy with Compound 1)
Format: in vivo, human
From the text: Randomized, double-blind, placebo-controlled, multicenter, phase IIb dose finding study of Compound 1 (dosed as a [Compound 1:HCl:3H2O]) administered for 24 weeks as monotherapy to subjects with moderately to severely active rheumatoid arthritis who have an inadequate response to methotrexate alone
Double-blind, placebo-controlled, monotherapy study in subjects with moderately to severely active RA who have an inadequate response to methotrexate (MTX) (oral or parenteral).
280 subjects randomized to one of 3 doses of Compound 1 (dosed as a [Compound 1:HCl:3H2O]) or to placebo, given once daily (q.d.).
Twelve weeks of treatment with Compound 1 (dosed as a [Compound 1:HCl:3H2O]) at 50 mg, 100 mg, or 200 mg q.d.; or placebo. At Week 12, all subjects on placebo and the subjects on the 50 mg dose who have not achieved 20% improvement in swollen joint count (SJC66) and tender joint count (TJC68) will be assigned to 100 mg q.d. in a blinded fashion and will continue treatment until Week 24. Subjects in the other groups will maintain their randomized treatment until Week 24.
This method is based on the determination of Δ^4 cholestenone after enzymatic cleavage of the cholesterol ester by cholesterol esterase, conversion of cholesterol by cholesterol oxidase, and subsequent measurement by the Trinder reaction of the hydrogen peroxide formed (Allain et al., 1974).
Cholesterol esters are cleaved by the action of cholesterol esterase to yield free cholesterol and fatty acids. Cholesterol oxidase then catalyzes the oxidation of cholesterol to cholest-4-en-3-one and hydrogen peroxide. In the presence of peroxidase, the hydrogen peroxide formed effects the oxidative coupling of phenol and 4-aminophenazone to form a red quinone-imine dye. The color intensity of the dye formed is directly proportional to the cholesterol concentration. It is determined by measuring the increase in absorbance.
Human serum and plasma samples cholesterol determination was done on a Roche/Hitachi Cobas c 701/702 system which automatically calculate the analyte concentration of each sample.

[1] = 50 mg q.d. non responders switching to 100 mg q.d. at week 12, week 1
[2] = 50 mg q.d. non responders switching to 100 mg q.d. at week 12, week 2
[3] = 50 mg q.d. non responders switching to 100 mg q.d. at week 12, week 4
[4] = 50 mg q.d. non responders switching to 100 mg q.d. at week 12, week 8
[5] = 50 mg q.d. non responders switching to 100 mg q.d. at week 12, week 12
[6] = 50 mg q.d. non responders switching to 100 mg q.d. at week 12, week 16
[7] = 50 mg q.d. non responders switching to 100 mg q.d. at week 12, week 20
[8] = 50 mg q.d. non responders switching to 100 mg q.d. at week 12, week 24

## O=C(Nc1nc2cccc(-c3ccc(CN4CCS(=O)(=O)CC4)cc3)n2n1)C1CC1 [Compound 1, cyclopropanecarboxylic acid {5-[4-(1,1-dioxo-thiomorpholin-4-ylmethyl)-phenyl]-[1,2,4]triazolo[1,5-a]pyridin-2yl}-amide]
[1]
  [total cholesterol] Mean percentage CFB - 24 weeks results: 4.56%
  [total cholesterol] Median percentage CFB - 24 weeks results: 2.94%
[2]
  [total cholesterol] Mean percentage CFB - 24 weeks results: 3.50%
  [total cholesterol] Median percentage CFB - 24 weeks results: 2.00%
[3]
  [total cholesterol] Mean percentage CFB - 24 weeks results: 7.51%
  [total cholesterol] Median percentage CFB - 24 weeks results: 6.58%
[4]
  [total cholesterol] Mean percentage CFB - 24 weeks results: 5.10%
  [total cholesterol] Median percentage CFB - 24 weeks results: 2.88%
[5]
  [total cholesterol] Mean percentage CFB - 24 weeks results: 5.83%
  [total cholesterol] Median percentage CFB - 24 weeks results: 6.79%
[6]
  [total cholesterol] Mean percentage CFB - 24 weeks results: 9.72%
  [total cholesterol] Median percentage CFB - 24 weeks results: 11.41%
[7]
  [total cholesterol] Mean percentage CFB - 24 weeks results: 9.75%
  [total cholesterol] Median percentage CFB - 24 weeks results: 7.07%
[8]
  [total cholesterol] Mean percentage CFB - 24 weeks results: 10.66%
  [total cholesterol] Median percentage CFB - 24 weeks results: 10.65%
50 mg q.d. responders, week 1
  [total cholesterol] Mean percentage CFB - 24 weeks results: 0.02%
  [total cholesterol] Median percentage CFB - 24 weeks results: 0.35%
50 mg q.d. responders, week 2
  [total cholesterol] Median percentage CFB - 24 weeks results: −0.82%
50 mg q.d. responders, week 4
  [total cholesterol] Mean percentage CFB - 24 weeks results: 1.68%
  [total cholesterol] Median percentage CFB - 24 weeks results: −0.51%
50 mg q.d. responders, week 8
  [total cholesterol] Mean percentage CFB - 24 weeks results: 5.55%
  [total cholesterol] Median percentage CFB - 24 weeks results: 5.74%
50 mg q.d. responders, week 12
  [total cholesterol] Mean percentage CFB - 24 weeks results: 3.59%
  [total cholesterol] Median percentage CFB - 24 weeks results: 1.01%
50 mg q.d. responders, week 16
  [total cholesterol] Mean percentage CFB - 24 weeks results: 5.85%
  [total cholesterol] Median percentage CFB - 24 weeks results: 2.92%
50 mg q.d. responders, week 20
  [total cholesterol] Mean percentage CFB - 24 weeks results: 2.09%
  [total cholesterol] Median percentage CFB - 24 weeks results: 3.75%
50 mg q.d. responders, week 24
  [total cholesterol] Mean percentage CFB - 24 weeks results: 3.49%
  [total cholesterol] Median percentage CFB - 24 weeks results: 5.44%
50 mg q.d., week 1
  [total cholesterol] Mean percentage CFB - 12 weeks results: 0.96%
  [total cholesterol] Median percentage CFB - 12 weeks results: 2.12%
50 mg q.d., week 2
  [total cholesterol] Mean percentage CFB - 12 weeks results: −0.18%
  [total cholesterol] Median percentage CFB - 12 weeks results: 0.00%
50 mg q.d., week 4
  [total cholesterol] Mean percentage CFB - 12 weeks results: 2.91%
  [total cholesterol] Median percentage CFB - 12 weeks results: 0.00%
50 mg q.d., week 8
  [total cholesterol] Mean percentage CFB - 12 weeks results: 5.45%
  [total cholesterol] Median percentage CFB - 12 weeks results: 4.90%
50 mg q.d., week 12
  [total cholesterol] Mean percentage CFB - 12 weeks results: 4.08%
  [total cholesterol] Median percentage CFB - 12 weeks results: 3.43%
100 mg q.d., week 1
  [total cholesterol] Mean percentage CFB - 12 weeks results: 4.15%
  [total cholesterol] Mean percentage CFB - 24 weeks results: 4.15%
  [total cholesterol] Median percentage CFB - 24 weeks results: 2.38%
100 mg q.d., week 2
  [total cholesterol] Mean percentage CFB - 12 weeks results: 4.96%
  [total cholesterol] Mean percentage CFB - 24 weeks results: 4.96%
  [total cholesterol] Median percentage CFB - 24 weeks results: 2.65%
100 mg q.d., week 4
  [total cholesterol] Mean percentage CFB - 12 weeks results: 8.28%
  [total cholesterol] Mean percentage CFB - 24 weeks results: 8.28%
  [total cholesterol] Median percentage CFB - 24 weeks results: 5.40%
100 mg q.d., week 8
  [total cholesterol] Mean percentage CFB - 12 weeks results: 7.75%
  [total cholesterol] Mean percentage CFB - 24 weeks results: 7.75%
  [total cholesterol] Median percentage CFB - 24 weeks results: 6.08%
100 mg q.d., week 12
  [total cholesterol] Mean percentage CFB - 12 weeks results: 12.45%
  [total cholesterol] Mean percentage CFB - 24 weeks results: 12.45%
  [total cholesterol] Median percentage CFB - 24 weeks results: 6.41%
100 mg q.d., week 16
  [total cholesterol] Mean percentage CFB - 24 weeks results: 10.96%
  [total cholesterol] Median percentage CFB - 24 weeks results: 8.91%
100 mg q.d., week 20
  [total cholesterol] Mean percentage CFB - 24 weeks results: 10.06%
  [total cholesterol] Median percentage CFB - 24 weeks results: 9.85%
100 mg q.d., week 24
  [total cholesterol] Mean percentage CFB - 24 weeks results: 11.75%
  [total cholesterol] Median percentage CFB - 24 weeks results: 10.29%
200 mg q.d., week 1
  [total cholesterol] Mean percentage CFB - 12 weeks results: 5.77%
  [total cholesterol] Mean percentage CFB - 24 weeks results: 5.77%
  [total cholesterol] Median percentage CFB - 24 weeks results: 5.37%
200 mg q.d., week 2
  [total cholesterol] Mean percentage CFB - 12 weeks results: 7.74%
  [total cholesterol] Mean percentage CFB - 24 weeks results: 7.74%
  [total cholesterol] Median percentage CFB - 24 weeks results: 6.90%
200 mg q.d., week 4
  [total cholesterol] Mean percentage CFB - 12 weeks results: 9.35%
